ChEMBL document CHEMBL1139192, “Novel bis(indolyl)maleimide pyridinophanes that are potent, selective inhibitors of glycogen synthase kinase-3” (Bioorg Med Chem Lett, 2007)

What was measured:
[1] = biological target: T1, Dual specificity mitogen-activated protein kinase kinase 7 (Homo sapiens) (UniProt O14733); assay: Inhibition of human MKK7-beta at 1 uM relative to control; values are per cent of control
T1 sequence (whole entry): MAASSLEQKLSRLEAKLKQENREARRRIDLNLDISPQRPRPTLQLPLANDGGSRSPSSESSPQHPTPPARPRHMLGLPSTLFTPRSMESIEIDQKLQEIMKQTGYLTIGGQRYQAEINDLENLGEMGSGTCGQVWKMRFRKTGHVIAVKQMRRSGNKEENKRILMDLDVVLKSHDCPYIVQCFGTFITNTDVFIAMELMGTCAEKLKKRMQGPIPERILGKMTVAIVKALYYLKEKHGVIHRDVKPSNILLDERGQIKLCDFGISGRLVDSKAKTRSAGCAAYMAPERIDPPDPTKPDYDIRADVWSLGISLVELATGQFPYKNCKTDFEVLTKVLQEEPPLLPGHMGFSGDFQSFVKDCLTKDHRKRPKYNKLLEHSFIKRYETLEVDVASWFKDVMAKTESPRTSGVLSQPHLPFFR

[2] = biological target: T2, Aurora kinase A (Homo sapiens) (UniProt O14965); assay: Residual activity of human Aurora A at 1 uM relative to control
T2 sequence (whole entry): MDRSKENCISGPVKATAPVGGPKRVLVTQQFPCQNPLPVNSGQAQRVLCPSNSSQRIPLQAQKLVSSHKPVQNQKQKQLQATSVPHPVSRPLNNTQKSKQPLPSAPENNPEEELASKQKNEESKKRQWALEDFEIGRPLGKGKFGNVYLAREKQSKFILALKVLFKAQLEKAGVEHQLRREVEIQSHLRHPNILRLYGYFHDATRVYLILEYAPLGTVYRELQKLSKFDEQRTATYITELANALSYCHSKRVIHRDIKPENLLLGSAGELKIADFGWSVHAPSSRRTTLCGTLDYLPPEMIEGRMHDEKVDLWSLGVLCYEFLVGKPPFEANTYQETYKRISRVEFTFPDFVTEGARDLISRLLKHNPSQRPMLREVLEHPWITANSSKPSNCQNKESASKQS

[3] = biological target: T3, Protein kinase C zeta type (Homo sapiens) (UniProt Q05513); assay: Residual activity of human PKCzeta at 1 uM relative to control
T3 sequence (whole entry): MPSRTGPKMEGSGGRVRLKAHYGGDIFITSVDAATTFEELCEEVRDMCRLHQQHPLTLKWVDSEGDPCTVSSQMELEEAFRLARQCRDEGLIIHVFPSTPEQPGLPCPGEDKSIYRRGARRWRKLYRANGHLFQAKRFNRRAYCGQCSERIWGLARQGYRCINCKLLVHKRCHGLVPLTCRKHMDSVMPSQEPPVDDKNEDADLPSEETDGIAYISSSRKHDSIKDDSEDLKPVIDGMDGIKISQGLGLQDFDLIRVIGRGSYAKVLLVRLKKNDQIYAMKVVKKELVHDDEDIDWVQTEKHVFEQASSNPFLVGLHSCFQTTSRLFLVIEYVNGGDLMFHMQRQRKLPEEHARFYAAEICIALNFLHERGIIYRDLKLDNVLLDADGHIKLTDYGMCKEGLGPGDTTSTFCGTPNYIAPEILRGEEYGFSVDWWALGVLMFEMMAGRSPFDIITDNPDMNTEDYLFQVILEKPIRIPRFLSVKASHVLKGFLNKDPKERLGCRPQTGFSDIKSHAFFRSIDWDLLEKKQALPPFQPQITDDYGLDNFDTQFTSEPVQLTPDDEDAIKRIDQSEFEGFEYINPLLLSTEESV

Mus musculus = species: Mus musculus; assay: Inhibition of mouse MAPK2 at 1 uM relative to control; values are per cent of control
Homo sapiens [4] = species: Homo sapiens; assay: Residual activity of human PKBalpha at 1 uM relative to control
Homo sapiens [5] = species: Homo sapiens; assay: Residual activity of human CDK1/Cyclin B at 1 uM relative to control
Homo sapiens [6] = species: Homo sapiens; assay: Residual activity of human PAR1B-alpha at 1 uM relative to control
Homo sapiens [7] = species: Homo sapiens; assay: Inhibition of human CDK7/Cyclin H at 1 uM relative to control; values are per cent of control
[8] = biological target: Casein kinase I isoform delta (Homo sapiens) (UniProt P48730); assay: Inhibition of CK1delta at 1 uM relative to control; values are per cent of control
[9] = biological target: Epidermal growth factor receptor (Homo sapiens) (UniProt P00533); assay: Inhibition of human EGFR at 1 uM relative to control; values are per cent of control
[10] = biological target: 3-phosphoinositide-dependent protein kinase 1 (Homo sapiens) (UniProt O15530); assay: Inhibition of human PDK1 at 1 uM relative to control; values are per cent of control
[11] = biological target: ALK tyrosine kinase receptor (Homo sapiens) (UniProt Q9UM73); assay: Inhibition of ALK at 1 uM relative to control; values are per cent of control
[12] = biological target: Fibroblast growth factor receptor 3 (Homo sapiens) (UniProt P22607); assay: Residual activity of human FGFR3 at 1 uM relative to control
[13] = biological target: Rho-associated protein kinase 2 (Rattus norvegicus) (UniProt Q62868); assay: Residual activity of rat ROCK2 at 1 uM relative to control
Rattus norvegicus = species: Rattus norvegicus; assay: Inhibition of rat AMPK at 1 uM relative to control; values are per cent of control
[14] = biological target: Tyrosine-protein kinase Lyn (Homo sapiens) (UniProt P07948); assay: Inhibition of human Lyn at 1 uM relative to control; values are per cent of control
Tyrosine-protein kinase Lyn (Homo sapiens), sequence (P07948 2-512 limits assumed): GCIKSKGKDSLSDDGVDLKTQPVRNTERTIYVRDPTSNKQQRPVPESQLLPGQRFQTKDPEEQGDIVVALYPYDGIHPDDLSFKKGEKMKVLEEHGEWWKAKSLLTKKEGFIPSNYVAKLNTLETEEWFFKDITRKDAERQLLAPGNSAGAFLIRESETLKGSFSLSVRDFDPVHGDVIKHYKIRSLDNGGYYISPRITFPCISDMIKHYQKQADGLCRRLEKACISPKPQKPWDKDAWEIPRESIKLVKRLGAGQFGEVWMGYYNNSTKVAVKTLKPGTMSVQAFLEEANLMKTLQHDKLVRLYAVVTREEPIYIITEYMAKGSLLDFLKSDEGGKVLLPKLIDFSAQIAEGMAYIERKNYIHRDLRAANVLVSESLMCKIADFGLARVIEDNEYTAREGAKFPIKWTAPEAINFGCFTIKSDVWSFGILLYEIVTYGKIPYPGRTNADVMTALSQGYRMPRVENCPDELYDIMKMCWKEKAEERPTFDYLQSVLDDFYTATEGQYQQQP

ALK tyrosine kinase receptor (Homo sapiens), sequence (Q9UM73 19-1620 limits assumed): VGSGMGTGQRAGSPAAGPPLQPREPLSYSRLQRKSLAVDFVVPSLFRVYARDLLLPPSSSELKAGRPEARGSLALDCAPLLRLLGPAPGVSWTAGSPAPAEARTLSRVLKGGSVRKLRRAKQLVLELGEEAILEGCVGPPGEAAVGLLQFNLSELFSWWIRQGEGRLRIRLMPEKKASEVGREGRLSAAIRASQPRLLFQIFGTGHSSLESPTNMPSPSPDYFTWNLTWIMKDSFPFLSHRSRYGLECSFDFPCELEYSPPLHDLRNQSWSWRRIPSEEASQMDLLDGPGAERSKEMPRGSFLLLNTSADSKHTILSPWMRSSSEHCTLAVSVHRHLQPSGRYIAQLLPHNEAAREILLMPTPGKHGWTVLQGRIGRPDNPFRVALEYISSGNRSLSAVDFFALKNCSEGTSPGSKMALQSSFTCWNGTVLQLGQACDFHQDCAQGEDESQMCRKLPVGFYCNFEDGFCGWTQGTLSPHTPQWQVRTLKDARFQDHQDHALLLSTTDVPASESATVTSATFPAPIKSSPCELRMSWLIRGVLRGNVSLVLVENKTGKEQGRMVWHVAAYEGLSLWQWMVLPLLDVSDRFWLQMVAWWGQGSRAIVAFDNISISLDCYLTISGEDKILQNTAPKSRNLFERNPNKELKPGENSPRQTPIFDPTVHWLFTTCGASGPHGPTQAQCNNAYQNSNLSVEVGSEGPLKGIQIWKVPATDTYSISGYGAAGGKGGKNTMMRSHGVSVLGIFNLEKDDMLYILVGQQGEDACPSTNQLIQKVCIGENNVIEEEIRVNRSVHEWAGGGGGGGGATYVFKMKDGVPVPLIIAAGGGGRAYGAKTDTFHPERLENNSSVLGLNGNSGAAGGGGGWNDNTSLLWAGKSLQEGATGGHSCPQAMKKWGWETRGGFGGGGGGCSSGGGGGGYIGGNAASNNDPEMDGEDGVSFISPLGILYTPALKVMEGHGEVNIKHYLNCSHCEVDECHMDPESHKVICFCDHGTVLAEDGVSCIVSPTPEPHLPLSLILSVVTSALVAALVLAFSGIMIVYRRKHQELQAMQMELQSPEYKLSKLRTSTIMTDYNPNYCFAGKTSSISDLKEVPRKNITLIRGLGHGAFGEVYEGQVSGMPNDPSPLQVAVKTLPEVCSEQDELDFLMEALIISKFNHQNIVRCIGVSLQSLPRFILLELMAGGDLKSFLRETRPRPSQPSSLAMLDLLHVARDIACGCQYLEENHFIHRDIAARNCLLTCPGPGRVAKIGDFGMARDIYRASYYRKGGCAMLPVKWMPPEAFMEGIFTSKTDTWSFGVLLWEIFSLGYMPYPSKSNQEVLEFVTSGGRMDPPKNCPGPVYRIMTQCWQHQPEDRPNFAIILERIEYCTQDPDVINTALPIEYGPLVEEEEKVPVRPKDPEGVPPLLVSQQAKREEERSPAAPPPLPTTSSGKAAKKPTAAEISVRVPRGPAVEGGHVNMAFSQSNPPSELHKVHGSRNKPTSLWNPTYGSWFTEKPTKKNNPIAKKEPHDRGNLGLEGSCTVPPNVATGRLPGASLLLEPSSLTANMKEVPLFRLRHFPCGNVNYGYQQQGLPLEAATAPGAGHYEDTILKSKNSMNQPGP
Fibroblast growth factor receptor 3 (Homo sapiens), sequence (P22607 23-806 limits assumed): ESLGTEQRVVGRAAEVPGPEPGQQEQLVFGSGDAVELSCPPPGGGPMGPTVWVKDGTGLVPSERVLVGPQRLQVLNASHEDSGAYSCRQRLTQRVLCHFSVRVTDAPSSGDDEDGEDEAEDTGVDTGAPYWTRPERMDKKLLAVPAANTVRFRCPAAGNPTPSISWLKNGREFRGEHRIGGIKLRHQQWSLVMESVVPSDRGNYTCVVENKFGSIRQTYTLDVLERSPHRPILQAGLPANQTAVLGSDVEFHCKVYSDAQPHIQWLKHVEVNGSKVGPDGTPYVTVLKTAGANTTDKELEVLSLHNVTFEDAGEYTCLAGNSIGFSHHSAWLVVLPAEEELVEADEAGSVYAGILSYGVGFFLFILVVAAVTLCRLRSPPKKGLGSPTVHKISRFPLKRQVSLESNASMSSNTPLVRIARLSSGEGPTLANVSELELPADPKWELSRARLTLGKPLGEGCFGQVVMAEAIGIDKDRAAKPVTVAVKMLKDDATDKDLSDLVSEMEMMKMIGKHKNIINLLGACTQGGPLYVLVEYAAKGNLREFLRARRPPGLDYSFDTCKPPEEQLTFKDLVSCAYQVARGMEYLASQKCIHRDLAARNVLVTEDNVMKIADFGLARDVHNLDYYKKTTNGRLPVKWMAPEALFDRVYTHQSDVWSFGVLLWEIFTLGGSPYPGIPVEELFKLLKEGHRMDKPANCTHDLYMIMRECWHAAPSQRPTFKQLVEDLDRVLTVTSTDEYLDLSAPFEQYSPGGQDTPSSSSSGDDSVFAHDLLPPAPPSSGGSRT
Epidermal growth factor receptor (Homo sapiens), sequence (P00533 whole entry): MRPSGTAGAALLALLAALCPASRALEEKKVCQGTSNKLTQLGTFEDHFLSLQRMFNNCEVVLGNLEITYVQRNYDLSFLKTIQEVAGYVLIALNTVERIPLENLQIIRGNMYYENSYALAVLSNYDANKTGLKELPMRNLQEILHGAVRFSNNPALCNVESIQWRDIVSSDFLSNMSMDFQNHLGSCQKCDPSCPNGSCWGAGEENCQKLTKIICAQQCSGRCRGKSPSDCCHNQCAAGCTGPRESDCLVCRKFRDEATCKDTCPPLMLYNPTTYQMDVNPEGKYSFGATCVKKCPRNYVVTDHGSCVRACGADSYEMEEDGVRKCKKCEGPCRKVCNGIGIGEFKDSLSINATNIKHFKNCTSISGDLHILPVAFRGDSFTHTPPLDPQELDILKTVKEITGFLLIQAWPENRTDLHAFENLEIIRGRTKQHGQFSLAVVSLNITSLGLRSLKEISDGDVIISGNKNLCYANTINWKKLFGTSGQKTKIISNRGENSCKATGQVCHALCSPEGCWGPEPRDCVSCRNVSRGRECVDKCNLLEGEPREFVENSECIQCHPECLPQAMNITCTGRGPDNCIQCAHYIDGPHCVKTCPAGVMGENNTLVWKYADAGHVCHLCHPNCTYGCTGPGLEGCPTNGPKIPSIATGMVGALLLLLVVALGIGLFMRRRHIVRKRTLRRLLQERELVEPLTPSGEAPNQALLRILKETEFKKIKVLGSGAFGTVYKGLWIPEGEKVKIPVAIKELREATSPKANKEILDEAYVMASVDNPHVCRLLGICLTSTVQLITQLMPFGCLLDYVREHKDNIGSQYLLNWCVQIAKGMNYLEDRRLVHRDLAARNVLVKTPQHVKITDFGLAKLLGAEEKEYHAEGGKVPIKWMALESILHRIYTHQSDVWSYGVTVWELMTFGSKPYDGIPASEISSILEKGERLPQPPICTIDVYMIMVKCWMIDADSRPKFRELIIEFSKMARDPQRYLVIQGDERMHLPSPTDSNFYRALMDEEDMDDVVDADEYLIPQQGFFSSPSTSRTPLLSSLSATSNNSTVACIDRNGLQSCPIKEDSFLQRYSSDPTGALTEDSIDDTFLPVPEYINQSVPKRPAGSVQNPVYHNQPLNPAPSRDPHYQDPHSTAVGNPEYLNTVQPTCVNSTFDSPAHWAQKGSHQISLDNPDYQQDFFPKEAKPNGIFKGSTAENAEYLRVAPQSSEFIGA
Casein kinase I isoform delta (Homo sapiens), sequence (P48730 whole entry, looked up, canonical isoform): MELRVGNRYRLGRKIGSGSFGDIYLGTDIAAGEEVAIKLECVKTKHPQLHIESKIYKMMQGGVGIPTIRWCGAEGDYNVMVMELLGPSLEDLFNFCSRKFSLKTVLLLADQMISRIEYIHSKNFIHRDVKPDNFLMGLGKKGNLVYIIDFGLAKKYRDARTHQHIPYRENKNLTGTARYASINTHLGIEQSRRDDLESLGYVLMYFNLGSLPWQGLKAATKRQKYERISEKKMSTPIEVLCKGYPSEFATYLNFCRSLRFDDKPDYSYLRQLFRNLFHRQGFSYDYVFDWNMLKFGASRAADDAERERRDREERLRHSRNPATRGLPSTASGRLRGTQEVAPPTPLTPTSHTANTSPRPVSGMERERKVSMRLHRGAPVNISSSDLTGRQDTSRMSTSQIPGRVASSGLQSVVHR
3-phosphoinositide-dependent protein kinase 1 (Homo sapiens), sequence (O15530 whole entry, looked up): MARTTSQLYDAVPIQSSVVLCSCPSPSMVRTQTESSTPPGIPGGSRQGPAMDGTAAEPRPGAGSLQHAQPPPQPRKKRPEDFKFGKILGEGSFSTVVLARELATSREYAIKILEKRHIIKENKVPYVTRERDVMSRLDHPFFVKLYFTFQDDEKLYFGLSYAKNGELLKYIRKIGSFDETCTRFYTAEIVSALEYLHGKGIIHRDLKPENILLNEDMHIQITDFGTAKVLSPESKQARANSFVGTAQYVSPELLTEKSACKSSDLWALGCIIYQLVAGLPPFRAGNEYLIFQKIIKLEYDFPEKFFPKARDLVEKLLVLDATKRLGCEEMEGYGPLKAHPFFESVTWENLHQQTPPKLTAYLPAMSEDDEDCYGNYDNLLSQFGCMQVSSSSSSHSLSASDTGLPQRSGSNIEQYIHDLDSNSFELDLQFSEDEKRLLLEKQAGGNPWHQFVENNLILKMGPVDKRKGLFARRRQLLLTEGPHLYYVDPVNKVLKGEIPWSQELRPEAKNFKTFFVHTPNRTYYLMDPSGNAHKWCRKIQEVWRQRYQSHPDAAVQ

Structure (SMILES)	residual activity [1]	residual activity [2]	residual activity [3]	residual activity (Mus musculus)	residual activity (Homo sapiens [4])	residual activity (Homo sapiens [5])	residual activity (Homo sapiens [6])	residual activity (Homo sapiens [7])	residual activity [8]	residual activity [9]	residual activity [10]	residual activity [11]	residual activity [12]	residual activity [13]	residual activity (Rattus norvegicus)	residual activity [14]
CN(C)c1nc2ccc1CCCn1cc(c3ccccc31)C1=C(C(=O)NC1=O)c1cn(c3ccccc13)CC2	88%	109%	98%	95%	94%	78%	94%	89%	107%	94%	115%	103%	75%	101%	101%	107%
CN(C)c1cc2cc(n1)CCCn1cc(c3ccccc31)C1=C(C(=O)NC1=O)c1cn(c3ccccc13)CCC2	78%	111%	105%	95%	114%	98%	100%	108%	111%	96%	104%	55%	84%	92%	101%	76%
O=C1NC(=O)C2=C1c1cn(c3ccccc13)CCCc1ccc(c(N3CCCC3)n1)CCCn1cc2c2ccccc21	85%	106%	116%	99%	106%		101%	111%	109%	104%	100%	74%	117%	91%	99%	78%
O=C1NC(=O)C2=C1c1cn(c3ccccc13)CCCc1cc(nc(N3CCCC3)c1)CCCn1cc2c2ccccc21	97%	111%	99%	103%	112%	80%	96%	107%	112%	108%	107%	58%	114%	83%	105%	87%
